This passage reports Leptin and Blood glucose value results from patent US20220296566A1, “COMBINATION PRODUCT CONTAINING LIMONOID COMPOUND AND ALPHA-GLUCOSIDASE INHIBITOR” (ZHEJIANG YANGSHENGTANG INSTITUTE OF NATURAL MEDICATION CO., …, priority 2019, published 2022).

Holding throughout (format): in vivo
Assay [1] relates to db/db mice. The assay can be described thus: Serum leptin by Elisa in db/db mice (Example 2). The following applies: single agent 0.04 g/kg per day by gavage, two weeks, mean ± SD. From the text: (§1) Effects of limonoid compound, acarbose or combination thereof on blood glucose and leptin in mouse type II diabetes model
(§2) In the present example, db/db mice (line name BKS.Cg-Dock7^m+/+Lepr^db/Nju) were used to perform hypoglycemic efficacy evaluation test of animals (blood glucose level and leptin). The limonoid compound was selected from obacunone, isoobacunoic acid and obacunone glycoside, and acarbose single administration group, obacunone single administration group, isoobacunoic acid single administration group, obacunone glycoside single administered group, and respective combination thereof with acarbose administration groups were set.
(§3) Conditions for experimental feeding: as type II diabetes model mice, 6-week-old SPF-grade db/db mice were purchased from the Nanjing Model Biology Institute, and subjected to experimental feeding after 7 days of preliminary feeding. It should be noted that the conditions for raising the mice were as follows: the temperature was 23±1° C., the humidity was 55±10%, the lights were turned on between 7 am and 7 pm (the lights were turned off at other time), and the mice were allowed to freely take in water and feed. […]

Assay [2] deals with db/db mice. The experiment in a line: Blood glucose in mouse type II diabetes model, db/db mice (Example 2). The following applies: single agent 0.04 g/kg per day by gavage, two weeks, 1 h after last administration, mean ± SD.
Description: as §1, §2, §3

In assay [3] the test system is STZ mice. The assay can be described thus: Blood glucose in mouse type II diabetes model with pancreatic islet damage and obesity, STZ plus high-fat diet (Example 5). The following applies: STZ + high-fat diet ICR mice; single agent 0.5 g/kg per day by gavage, two weeks; 1 h after last administration; mean ± SD. The text has this: Effects of limonoid compound, acarbose or combination thereof on blood glucose in mouse type II diabetes model with pancreatic islet damage and obesity
In this example, a mouse model of type II diabetes with pancreatic islet damage and obesity was established by multiple modeling ICR mice with a small dose of streptozotocin (STZ), following with continuous high-fat diets (referring to literature: Zhang Jiyuan et al, Study on the effect of three plant extracts on improving glucose and lipid metabolism in type 2 diabetic mice, Food and Machinery, 2016, 32 (12): 142-147). […]
Experimental grouping: 15 male mice were randomly selected as the normal control group, and the remaining mice were subjected to a high-fat diet (high-fat diet formula: cholesterol 1%, egg yolk powder 10%, lard oil 10%, and basic feed 79%, for establishing an obesity mouse model) for consecutive 4 weeks and intraperitoneal injection of STZ at a dose of 35mg/kg for three consecutive days. After one week, the mice were subject to 24 hours of fasting and water deprivation, their fasting blood glucose was measured, and the mice with a blood glucose level of 15 to 25 mmol/L were selected and undifferentiatedly grouped and used in the experiment, continuously subjected to the high-fat diet, 15 mice in each group, and subjected to blood sampling and detection of indicators after 2 weeks of administration. […]

As for `C[C@H]1O[C@H](O[C@H]2[C@H](O)[C@@H](O)[C@@H](O[C@H]3[C@H](O)[C@@H](O)C(O)O[C@@H]3CO)O[C@@H]2CO)[C@H](O)[C@@H](O)[C@@H]1N[C@H]1C=C(CO)[C@@H](O)[C@H](O)[C@H]1O` (stereo partly drawn) [Acarbose, acarbose], the Leptin in assay [1] worked out at 35.57 ± 2.98 pg/mL. Besides, the Blood glucose value is on record as 16.9 ± 4.0 mmol/L in assay [2] and 15.7 ± 3.0 mmol/L in assay [3].
